Measured values as given in patent US20240166703A1, “ANTI-INFLAMMATORY PEPTIDE AND METHOD OF USE THEREOF” (The Regents of the University of California, priority 2021, published 2024).

Assays:
BMDM cells = test: Quantitation of cytokines in supernatant of cultured BMDM cells (toxicity); format: cell-based, C57BL/6J mice; details: 100 μM, 24 hours, without stimulating the cells
Procedure: With the approval of the UCSD and Veteran Affairs San Diego Institutional Animal Care and Use Committees (IACUC), bone marrow-derived macrophage (BMDM) cells were isolated from 6-8 weeks old C57BL/6J mice (Jackson Laboratory) followed by erythrocyte lysis with ammonium chloride, and then seeded in 12-well plates at a concentration of 1×10^6 cells/mL. Cultured cells were differentiated to macrophages with culture media containing monocyte-colony stimulating factor (M-CSF; 10 ng/mL). After 7 days of differentiation, BMDM cells were treated with TNF-α (10 ng/mL) or LPS ([…]) with or without TAT-NEMO^ActPep, TAT-NEMO^ActPep6G, or MLN120B.
BMDM cels were pre-incubated with or without 100 μM TAT-NEMO^ActPep or MLN120B for 24 hours. Negative control cells were treated with 1×PBS or DMSO at the same concentrations as those present in either TAT-NEMO^ActPep or MLN120B, respectively. IL-1β and TNF-α levels were measured from 20 μL supernatant of cultured BMDM cells using U-PLEX mouse cytokine assay kit (Meso Scale Diagnostics) following the manufacturer's protocol. […] Experiments were performed in triplicate.
Further, the potentially toxic effects of a high concentration (100 μM) dose of NEMO^ActPep were tested on IL-1β production in BMDMs without stimulating the cells. […]

[1] = test system: B- and T-cell proliferation; details: cited from earlier work
mice = details: mouse, in vivo; cited from earlier work

Compound: COc1c(Cl)cc2c([nH]c3cnccc32)c1NC(=O)c1cccnc1C [MLN120B]
- TNF-α expression / basal levels in BMDM supernatant (BMDM cells): reduced basal levels of TNF-α
- production of IL-1β in BMDM supernatant (BMDM cells): significantly induced production of mature IL-1β
- B- and T-cell proliferation [1]: block B- and T-cell proliferation
- neutrophilia in mice (mice): promote neutrophilia
- septic shock in mice (mice): cause septic shock
